Experiments:
[1] = molecular target: T1, Thymidine phosphorylase (Rattus norvegicus) (UniProt Q5FVR2); experiment: Inhibition of Sprague-Dawley rat lymphoma thymidine phosphorylase assessed as ratio of phosphorolysis in presence of drug to control at 10 umol/l
T1 sequence (whole entry): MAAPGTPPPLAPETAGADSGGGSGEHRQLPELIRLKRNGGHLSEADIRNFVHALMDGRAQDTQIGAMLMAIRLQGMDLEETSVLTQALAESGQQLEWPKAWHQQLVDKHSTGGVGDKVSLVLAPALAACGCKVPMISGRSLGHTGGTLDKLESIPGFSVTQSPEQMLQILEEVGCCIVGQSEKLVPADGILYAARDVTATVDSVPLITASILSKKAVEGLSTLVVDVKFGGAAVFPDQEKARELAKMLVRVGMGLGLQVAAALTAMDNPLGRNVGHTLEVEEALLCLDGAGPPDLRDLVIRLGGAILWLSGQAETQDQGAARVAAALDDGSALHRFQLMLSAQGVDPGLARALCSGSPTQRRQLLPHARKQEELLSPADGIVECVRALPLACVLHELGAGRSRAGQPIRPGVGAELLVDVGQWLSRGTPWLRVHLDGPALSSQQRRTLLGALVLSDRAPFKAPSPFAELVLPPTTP

[2] = molecular target: Thymidine phosphorylase (Escherichia coli K-12) (UniProt P07650); experiment: Inhibition of Escherichia coli thymidine phosphorylase assessed as ratio of phosphorolysis in presence of drug to control at 10 umol/l
Sequence of Thymidine phosphorylase (Escherichia coli K-12) (P07650 whole entry, looked up): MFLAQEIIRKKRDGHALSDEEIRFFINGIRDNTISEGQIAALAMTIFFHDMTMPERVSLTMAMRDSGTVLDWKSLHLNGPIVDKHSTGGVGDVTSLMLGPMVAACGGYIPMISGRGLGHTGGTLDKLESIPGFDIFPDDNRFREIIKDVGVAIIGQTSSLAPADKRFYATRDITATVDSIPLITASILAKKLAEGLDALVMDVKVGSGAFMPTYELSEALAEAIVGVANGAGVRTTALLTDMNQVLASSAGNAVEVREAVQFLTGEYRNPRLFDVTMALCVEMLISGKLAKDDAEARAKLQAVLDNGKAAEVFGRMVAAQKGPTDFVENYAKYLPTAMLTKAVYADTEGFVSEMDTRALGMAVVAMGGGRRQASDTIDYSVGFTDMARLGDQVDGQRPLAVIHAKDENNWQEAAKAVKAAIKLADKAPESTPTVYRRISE

Row | SMILES | Ratio [1] | Ratio [2]
1 | Cc1c[nH]c(=O)n(C[C@H](CF)OCP(=O)(O)O)c1=O | 0.75 | 0.98
2 | Cc1c[nH]c(=O)n(C[C@@H](CO)OCP(=O)(O)O)c1=O | – | 0.94

More lines, now with the values ahead:

Row | Ratio [1] | Ratio [2] | SMILES
3 | 1.44 | 1.07 | Cc1c[nH]c(=O)n(CCOCP(=O)(O)O)c1=O
4 | – | 0.93 | Cc1c[nH]c(=O)n(C[C@@H](CF)OCP(=O)(O)O)c1=O
5 | 0.78 | 1.01 | Cc1c[nH]c(=O)n(C[C@H](CO)OCP(=O)(O)O)c1=O
